Measured values reported in patent publication US7378375B1, “Substituted pyridine herbicides” (Syngenta Crop Protection, Inc., priority 2000, dated 2008).

Tests used:
[1] = test system: Monocotyledonous and dicotyledonous test plants; test: Herbicidal action before emergence of the plants (pre-emergence action), greenhouse pot test, 9-level rating after 4 weeks; format: in vivo; parameters: key: 9-level scale: 1 = complete damage, 9 = no effect; conditions: 250 g/ha, rated after 4 weeks, 9-level scale
How it was run: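 Compounds applied pre-emergence as a spray (500 l water/ha) of aqueous suspension or emulsion onto soil immediately after sowing mono- and dicot species in pots. Greenhouse-grown; damage rated after 4 weeks on a 9-level scale (1=complete damage, 9=no effect).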

[2] = test system: Monocotyledonous and dicotyledonous test plants; test: Post-emergence herbicidal action, greenhouse pot test, sprayed at the 2- to 3-leaf stage, 9-level rating after 2 to 3 weeks; format: in vivo; parameters: key: 9-level scale: 1 = complete damage, 9 = no effect; conditions: 250 g/ha, rated after 2 to 3 weeks, 9-level scale
How it was run: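 Plants grown in standard soil in pots; test substances sprayed at the 2- to 3-leaf stage at optimum dosage (500 l water/ha) as aqueous suspension or emulsion from formulated concentrates. Plants then kept in the greenhouse under optimum conditions; rated after 2 to 3 weeks on a 9-level scale (1=complete damage, 9=no effect).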

SMILES	Pre-emergence action rating, Abutilon [1]	Pre-emergence action rating, Amaranthus [1]	Pre-emergence action rating, Chenop. [1]	Pre-emergence action rating, Digitaria [1]	Pre-emergence action rating, Echino. [1]	Pre-emergence action rating, Panicum [1]	Post-emergence action rating, Abutilon [2]	Post-emergence action rating, Amaranth [2]	Post-emergence action rating, Chenop. [2]	Post-emergence action rating, Digitaria [2]	Post-emergence action rating, Echino. [2]	Post-emergence action rating, Ipopur. [2]	Post-emergence action rating, Panicum [2]	Post-emergence action rating, Xanth. [2]
O=C(C1=C(O)C2CCC(C2)C1=O)c1ccc(C(F)(F)F)nc1COC1COC1 (stereo not shown) [A24-B52]	1	1	1	1	1	1	2	2	1	2	2	2	2	2
O=C(C1=C(O)C2CCC(C2)C1=O)c1ccc(C(F)(F)F)nc1COC1CCCCC1 (stereo not shown) [A27-B52]	4	1	3	2	3	1	3	2	5	2	2	4	1	2
CCN(CC)CC.O=C(C1=C(O)C2CCC(C2)C1=O)c1ccc(C(F)(F)F)nc1COC1CCCCO1 (stereo not shown) [A28-B52 (Et3NH+)]	3	1		2	2	1	2	2	1	2	2	2	1	3
O=C(C1=C(O)C2CCC(C2)C1=O)c1ccc(C(F)(F)F)nc1COC1CCCCO1 (stereo not shown) [A28-B52]	2	3		2	2	1	2	1	1	2	2	4	1	3
O=C(C1=C(O)C2CCC(C2)C1=O)c1ccc(C(F)(F)F)nc1COCC1CC1 (stereo not shown) [A56-B52]	3	1	1	2	1	1	2	1	1	2	2	2	1	2
O=C(C1=C(O)C2CCC(C2)C1=O)c1ccc(C(F)(F)F)nc1COCC1CO1 (stereo not shown) [A57-B52 (H5), 4-Hydroxy-3-(2-oxiranylmethoxymethyl-6-trifluoromethylpyridine-3-carbonyl)-bicyclo[3.2.1]oct-3-en-2-one]	1	1	1	1	1	1	1	1	1	1	2	2	1	2
O=C(C1=C(O)C2CCC(C2)C1=O)c1ccc(C(F)(F)F)nc1COCC1CCCCO1 (stereo not shown) [A63-B52]	5	3		3	1	2	2	2	2	2	2	2	1	2
O=C(C1=C(O)C2CCC(C2)C1=O)c1ccc(C(F)(F)F)nc1COCc1ccccc1 (stereo not shown) [A67-B52]	3	2	1	2	2	1	2	2	1	2	2	3	2	2
COCCOCc1nc(C(F)(F)Cl)ccc1C(=O)C1=C(O)C2CCC(C2)C1=O (stereo not shown) [A556-B52]	1	2	1	1	1	1	1	2	1	2	2	2	1	2
COCCOCc1nc(C(F)F)ccc1C(=O)C1=C(O)C2CCC(C2)C1=O (stereo not shown) [A646-B52]	1	2	1	1	1	1	2	2	1	2	2	2	1	2
COCCOCc1c(C(=O)C2=C(O)C3CCC(C3)C2=O)ccc(C(F)(F)F)[n+]1[O-] (stereo not shown) [A736-B52]	1	1	1	4	2	1	1	1	1	1	2	2	1	2
